Test [1] deals with STAT3 (Mus musculus, UniProt P42227). In words: Inhibition of STAT3 dimerization, EMSA assay. Further details: endogenous in cells; host or cells: nuclear extracts per the general EMSA method. In kind it is binding. On the technique in general: A gel shift assay detects complexes by their altered migration in electrophoresis.
Test [2] concerns the target T1, Stat3:3 (Mus musculus, UniProt P42227).
T1 construct: endogenous in cells; host or cells: NIH3T3/v-Src or EGF-stimulated NIH3T3/hEGFR mouse fibroblasts, nuclear extracts
As to the kind of experiment: STATs DNA-binding activity in vitro, EMSA with hSIE probe. Particulars: for pIC50: Table 4, read-out: IC50 values for the inhibition of STATs DNA-binding activity in vitro, Stat3:3; for selectivity among STAT family members, in words: nuclear extracts of EGF-stimulated NIH3T3/hEGFR.

In test [3] the target is T2, Stat1:1 (Mus musculus, UniProt P42225).
T2 construct: endogenous in cells; host or cells: EGF-stimulated NIH3T3/hEGFR mouse fibroblasts, nuclear extracts
T2 sequence (P42225 2-749 limits assumed): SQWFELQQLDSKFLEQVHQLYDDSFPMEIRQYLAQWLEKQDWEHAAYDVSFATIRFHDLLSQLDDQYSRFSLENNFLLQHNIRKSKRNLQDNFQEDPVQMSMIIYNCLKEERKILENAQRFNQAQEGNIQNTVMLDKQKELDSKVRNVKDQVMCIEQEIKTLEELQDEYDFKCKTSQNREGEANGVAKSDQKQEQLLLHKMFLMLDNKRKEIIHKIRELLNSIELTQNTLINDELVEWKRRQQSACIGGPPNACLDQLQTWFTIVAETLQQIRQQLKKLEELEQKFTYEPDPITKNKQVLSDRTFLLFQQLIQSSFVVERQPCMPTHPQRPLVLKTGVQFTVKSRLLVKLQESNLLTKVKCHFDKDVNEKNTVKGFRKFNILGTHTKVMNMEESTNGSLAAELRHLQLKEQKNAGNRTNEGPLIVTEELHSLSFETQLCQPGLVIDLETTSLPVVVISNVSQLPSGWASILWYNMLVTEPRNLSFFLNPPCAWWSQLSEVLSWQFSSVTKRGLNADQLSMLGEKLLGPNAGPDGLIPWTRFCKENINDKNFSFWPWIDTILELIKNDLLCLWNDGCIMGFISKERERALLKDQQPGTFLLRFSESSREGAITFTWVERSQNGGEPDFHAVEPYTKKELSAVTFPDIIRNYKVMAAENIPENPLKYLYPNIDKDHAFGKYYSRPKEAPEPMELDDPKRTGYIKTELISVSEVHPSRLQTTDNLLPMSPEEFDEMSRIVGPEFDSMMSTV
As to the kind of experiment: STATs DNA-binding activity in vitro, EMSA. The settings on record: Table 4; read-out: IC50 values for the inhibition of STATs DNA-binding activity in vitro, Stat1:1.

For test [4], the target named is Stat5:5. As to the kind of experiment: STATs DNA-binding activity in vitro, EMSA with MGFe probe. Further details: species or system mouse. The settings on record: Table 4; read-out: IC50 values for the inhibition of STATs DNA-binding activity in vitro, Stat5:5.
For test [5], the target named is T3, Stat1:3 (Mus musculus, UniProt P42227).
T3 construct: endogenous in cells; host or cells: EGF-stimulated NIH3T3/hEGFR mouse fibroblasts, nuclear extracts
T3 sequence (P42227 2-770 limits assumed): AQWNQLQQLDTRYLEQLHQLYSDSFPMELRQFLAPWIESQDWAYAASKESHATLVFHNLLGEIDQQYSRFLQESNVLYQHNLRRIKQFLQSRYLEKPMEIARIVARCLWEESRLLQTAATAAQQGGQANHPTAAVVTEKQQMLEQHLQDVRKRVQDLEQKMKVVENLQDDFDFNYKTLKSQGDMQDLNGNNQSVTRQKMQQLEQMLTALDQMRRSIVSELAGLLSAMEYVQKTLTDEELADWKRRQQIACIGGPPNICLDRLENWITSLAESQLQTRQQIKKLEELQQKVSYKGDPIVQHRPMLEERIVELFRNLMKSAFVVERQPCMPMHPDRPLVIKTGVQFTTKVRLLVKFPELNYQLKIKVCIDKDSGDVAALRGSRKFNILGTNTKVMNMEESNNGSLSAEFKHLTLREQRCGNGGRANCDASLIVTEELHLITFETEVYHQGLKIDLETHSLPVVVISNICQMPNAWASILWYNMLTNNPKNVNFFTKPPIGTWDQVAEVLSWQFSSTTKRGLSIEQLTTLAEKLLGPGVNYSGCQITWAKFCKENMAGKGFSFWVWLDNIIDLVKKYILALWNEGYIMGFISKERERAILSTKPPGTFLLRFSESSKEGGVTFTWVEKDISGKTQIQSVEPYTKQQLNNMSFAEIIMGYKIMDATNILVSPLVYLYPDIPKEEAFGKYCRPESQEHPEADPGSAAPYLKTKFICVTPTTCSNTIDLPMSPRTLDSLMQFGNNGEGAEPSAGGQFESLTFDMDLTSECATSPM
As to the kind of experiment: STATs DNA-binding activity in vitro, EMSA with hSIE probe. The settings on record: Table 4; read-out: IC50 values for the inhibition of STATs DNA-binding activity in vitro, Stat1:3.

This is an account of results in patent US9604923B2 (H. LEE MOFFITT CANCER CENTER AND RESEARCH INSTITUTE, INC., priority 2006, dated 2017).

pIC50: −log10 of the molar value.

STAT3, sequence (P42227 2-770 limits assumed): as above
T1 sequence (P42227 2-770 limits assumed): as above

By pIC50 is commonly meant −log10 of the IC50, conventionally taken in molar units. In turn, `Cc1ccc(S(=O)(=O)OCC(=O)Nc2ccccc2)cc1` [Compound 6, 2-Oxo-2-(phenylamino)ethyl 4-methylbenzenesulfonate] gave a pIC50 in test [1] of less than 3.30.

As for `Cc1ccc(S(=O)(=O)OCC(=O)Nc2ccc(C#N)cc2)cc1` [Compound 7, 2-(4-Cyanophenylamino)-2-oxoethyl 4-methylbenzenesulfonate], the negative-log IC50 (pIC50) in test [1] is less than 3.30.

`Cc1ccc(S(=O)(=O)OCC(=O)Nc2ccc(S(N)(=O)=O)cc2)cc1` [Compound 8, 2-Oxo-2-(4-sulfamoylphenylamino)ethyl 4-methylbenzenesulfonate] had a pIC50 in test [1] of less than 3.30.

In the case of `Cc1ccc(S(=O)(=O)NCC(=O)Nc2ccc(C(=O)O)c(O)c2)cc1` [Compound 11], the negative logarithm of the IC50 (pIC50) in test [1] was less than 3.30.

Compound `O=C(COS(=O)(=O)c1ccc(-c2ccc(Cl)cc2)cc1)Nc1ccc(C(=O)O)c(O)c1` [Compound 15, 4-(2-(4′-Chlorobiphenyl-4-ylsulfonyloxy)acetamido)-2-hydroxybenzoic acid] showed a pIC50 in test [1] of less than 3.30.

In test [1], `O=C(COS(=O)(=O)c1ccc(-c2ccccc2)cc1)Nc1ccc(C(=O)O)cc1` [Compound 20, 4-(2-(Biphenyl-4-ylsulfonyloxy)acetamido)benzoic acid] had a pIC50 of less than 3.30.

For the compound `O=C(COCc1ccccc1)Nc1ccc(C(=O)O)cc1` [Compound 22, 4-(2-(Benzyloxy)acetamido)benzoic acid], the pIC50 in test [1] is less than 3.30.

In test [1], `O=C(COCc1ccccc1)Nc1ccc(C(=O)O)c(O)c1` [Compound 23, 4-(2-(Benzyloxy)acetamido)-2-hydroxybenzoic acid] showed a pIC50 of less than 3.30.

In test [1], `O=C(CCS(=O)(=O)c1ccccc1)Nc1ccc(C(=O)O)c(O)c1` [Compound 24, 4-(3-(Phenylsulfonyl)propanamido)-2-hydroxybenzoic acid] showed a pIC50 greater than 3.30.

In test [1], `O=C(CCS(=O)(=O)c1ccccc1)Nc1ccc(C(=O)O)cc1` [Compound 25, 4-(3-(Phenylsulfonyl)propanamido)benzoic acid] gave a pIC50 greater than 3.30.

Consider `O=C(CCCc1ccccc1)Nc1ccc(C(=O)O)cc1` [Compound 27, 4-(4-Phenylbutanamido)benzoic acid], for which the pIC50 in test [1] was less than 3.30.

Turning to `N#Cc1ccc(NC(=O)CNS(=O)(=O)c2ccc(-c3ccccc3)cc2)cc1` [Compound 28, 2-(Biphenyl-4-ylsulfonamido)-N-(4-cyanophenyl)acetamide], the pIC50 in test [1] is less than 3.30.

Consider `O=C(CNS(=O)(=O)c1ccc(-c2ccccc2)cc1)Nc1ccc(S(=O)(=O)O)cc1` [Compound 29, 4-(2-(Biphenyl-4-ylsulfonamido)acetamido)benzenesulfonic acid], for which the pIC50 in test [1] was less than 3.30.

`NS(=O)(=O)c1ccc(NC(=O)CNS(=O)(=O)c2ccc(-c3ccccc3)cc2)cc1` [Compound 30, 2-(Biphenyl-4-ylsulfonamido)-N-(4-sulfamoylphenyl)acetamide] showed a pIC50 in test [1] of less than 3.30.

`O=C(CNS(=O)(=O)c1ccc(-c2ccc(Cl)cc2)cc1)Nc1ccc(C(=O)O)cc1` [Compound 31] showed a pIC50 in test [1] of less than 3.30.

Regarding `O=C(CNS(=O)(=O)c1ccc(-c2ccccc2)cc1)Nc1ccc(C(=O)O)cc1` [Compound 32], the pIC50 in test [1] is less than 3.30.

On to `Cc1ccc(S(=O)(=O)NCC(CC(=O)Nc2ccccc2)c2ccc(Cl)cc2)cc1` (stereo not drawn) [Compound 36, 3-(4-Chlorophenyl)-4-(4-methylphenylsulfonamido)-N-phenylbutanamide], for which the negative-log IC50 (pIC50) in test [1] was greater than 3.30.

Take `CCOC(=O)c1ccc(NC(=O)CCc2ccc3ccccc3c2)cc1` [Compound 69, Ethyl 4-(3-(naphthalen-2-yl)propanamido)benzoate]: the pIC50 in test [1] was less than 3.30.

In test [1], `O=C(CCc1ccccc1)Nc1ccc(C(=O)O)cc1` [Compound 72, 4-(3-Phenylpropanamido)benzoic acid] showed a pIC50 of less than 3.30.

`O=C(CCc1ccccc1)Nc1ccc(C(=O)O)c(O)c1` [Compound 73, 4-(3-Phenylpropanamido)-2-hydroxybenzoic acid] gave a pIC50 in test [1] of less than 3.30.

Turning to `COC(=O)c1ccc2cc(C(=O)Nc3cc(C(=O)O)ccc3O)ccc2c1` [Compound 75, 4-hydroxy-3-(6-(methoxycarbonyl)-2-naphthamido)benzoic acid], the negative-log IC50 (pIC50) in test [1] is greater than 3.30.

For `O=C1C=C(Nc2ccc(S(=O)(=O)Nc3ccccn3)cc2)C(=O)C=C1Nc1ccc(S(=O)(=O)Nc2ccccn2)cc1` [NSC 11421], in test [2], the “inhibition of Stat3 DNA-binding activity, in words” value (“inhibition” for short) is on record as “notable potent inhibitors”. The negative-log IC50 (pIC50) is 4.10 in test [2], 3.98 in test [3], 3.66 in test [4] and 3.84 in test [5].

With `O=C1c2ccccc2-c2ccc(N(Cc3ccc([N+](=O)[O-])cc3)Cc3ccc([N+](=O)[O-])cc3)cc21` [NSC 24056], the pIC50 is 3.61 in test [2], 3.57 in test [3], 3.63 in test [4] and 3.59 in test [5].

Regarding `C=CC1=C(C)/C(=C/c2[nH]c(Cc3[nH]c(/C=C4\NC(=O)C(C)=C4C=C)c(C)c3CCC(=O)O)c(CCC(=O)O)c2C)NC1=O` [NSC 26685], the pIC50 is 4.07 in test [2], 4.02 in test [3], 3.90 in test [4] and 4.17 in test [5].

Turning to `O=C(O)c1cc(O)c(O)c(OC(=O)c2cc(O)c(O)c(O)c2CNc2ccc3cc(S(=O)(=O)O)cc(S(=O)(=O)O)c3c2)c1` [NSC 42067], the “inhibition” value in test [2] was “Potent inhibition”. For the same compound, the pIC50 in test [2] was 4.19; in test [3], 3.71; in test [4], 4.06; in test [5], 4.07. In addition, the “selectivity among STAT family members, in words” value in test [2] is “preferentially inhibit Stat3 and Stat5 over that of Stat1”.

In the case of `CC(CCC(=O)O)(c1ccc(OC(=O)Nc2ccccc2Cl)cc1)c1ccc(OC(=O)Nc2ccccc2Cl)cc1` [NSC 51926], the pIC50 in test [2] is 3.53; in test [3], 3.52; in test [4], less than 3.52; in test [5] it was 3.52.

For `O=C(Nc1cccc(NC(=O)C(=O)O)c1)Oc1ccccc1` [NSC 71906], the negative-log IC50 (pIC50) is 3.53 in test [2], 3.65 in test [3], 3.55 in test [4] and 3.59 in test [5].

Take `Cc1cc(N=Nc2ccc(-c3ccc(N=Nc4ccc(O)c(C(=O)O)c4)cc3)cc2)c(N)c(N=Nc2cc(C(=O)O)ccc2Cl)c1N.[Na+]` [NSC 75912]: in test [2], the “inhibition” value is reported as “Potent inhibition”. Moreover, the pIC50 in test [2] is 3.80; in test [3], 4.14; in test [4], less than 3.52; in test [5] it was 3.98. For the same compound, in test [2], the “selectivity among STAT family members, in words” value is given as “preferentially inhibits Stat1 over Stat3 or Stat5”.

With `Cc1cc(N=Nc2ccc(-c3ccc(N=Nc4ccc(O)c(C(=O)O)c4)cc3)cc2)c(N)c(N=Nc2cccc(OCC(=O)O)c2)c1N` [NSC 75914], the pIC50 in test [2] is 3.56; in test [3], 3.95; in test [4], less than 3.52; in test [5], 3.58.

On to `O=C(OC1COC(n2c(=O)oc3cc([N+](=O)[O-])ccc32)C(OC(=O)c2ccccc2)C1OC(=O)c1ccccc1)c1ccccc1` (stereo not drawn) [NSC 87849], for which the pIC50 in test [2], in test [3], in test [4] and in test [5] was less than 3.52 in each case.

Turning to `CN=C(Nc1ccccn1)c1ccc(NC(=O)c2ccc(C(=O)Nc3ccc(C(=NC)Nc4ccccn4)cc3)cc2)cc1` [NSC 90438], the pIC50 in test [2], in test [3], in test [4] and in test [5] was less than 3.52 throughout.

Take `CC(C)NC(=O)c1cc(NC(=O)c2ccc(C(=O)Nc3cc(C(=O)NC(C)C)cc(C4=NCCN4)c3)cc2)cc(C2=NCCN2)c1` [NSC 101595]: the pIC50 is 3.56 in test [2], less than 3.52 in test [3], 3.54 in test [4] and less than 3.52 in test [5].

`O=C(O)c1cc(N=C2C=CC(=C(c3ccccc3)c3ccc(Nc4ccc(Cl)c(C(=O)O)c4)cc3)C=C2)ccc1Cl` [NSC 117907]: the pIC50 is 3.69 in test [2], less than 3.52 in test [3], less than 3.52 in test [4] and 3.53 in test [5].

Regarding `O=C(/C=C/c1ccccc1)NC(=S)Nc1ccc(C(=O)O)cc1` [NSC 205965], the pIC50 in test [2] is 3.65; in test [3], 3.60; in test [4], 3.59; in test [5], 3.59.
